From BindingDB's records for PubMed 10336510 (Virginia Commonwealth University, 1999)

What was measured:
[1] = target: Sodium-dependent dopamine transporter (Rattus norvegicus, UniProt P23977)
[2] = target: Sodium-dependent serotonin transporter (Rattus norvegicus, UniProt P31652)
[3] = target: Norepinephrine transporter (Rattus norvegicus, UniProt Q9JIA2)

Sodium-dependent serotonin transporter, sequence (P31652 whole entry): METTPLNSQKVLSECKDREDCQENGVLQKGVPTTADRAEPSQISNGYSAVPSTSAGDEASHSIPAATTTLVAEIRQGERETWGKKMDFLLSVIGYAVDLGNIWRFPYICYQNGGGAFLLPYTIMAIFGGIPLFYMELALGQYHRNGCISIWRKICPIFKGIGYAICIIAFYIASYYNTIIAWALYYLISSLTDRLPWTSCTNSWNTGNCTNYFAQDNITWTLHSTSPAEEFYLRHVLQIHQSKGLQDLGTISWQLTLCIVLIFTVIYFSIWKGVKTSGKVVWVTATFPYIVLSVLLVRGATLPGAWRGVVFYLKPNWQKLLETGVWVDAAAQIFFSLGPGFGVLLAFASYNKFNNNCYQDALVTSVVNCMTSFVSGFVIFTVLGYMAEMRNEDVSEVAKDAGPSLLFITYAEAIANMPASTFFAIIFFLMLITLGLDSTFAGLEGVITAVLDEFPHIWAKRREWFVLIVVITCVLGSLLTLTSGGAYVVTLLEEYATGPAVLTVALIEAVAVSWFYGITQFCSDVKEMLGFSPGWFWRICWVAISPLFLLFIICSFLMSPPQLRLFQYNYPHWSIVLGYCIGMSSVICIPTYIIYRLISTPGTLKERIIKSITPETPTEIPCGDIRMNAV
Sodium-dependent dopamine transporter, sequence (P23977 whole entry): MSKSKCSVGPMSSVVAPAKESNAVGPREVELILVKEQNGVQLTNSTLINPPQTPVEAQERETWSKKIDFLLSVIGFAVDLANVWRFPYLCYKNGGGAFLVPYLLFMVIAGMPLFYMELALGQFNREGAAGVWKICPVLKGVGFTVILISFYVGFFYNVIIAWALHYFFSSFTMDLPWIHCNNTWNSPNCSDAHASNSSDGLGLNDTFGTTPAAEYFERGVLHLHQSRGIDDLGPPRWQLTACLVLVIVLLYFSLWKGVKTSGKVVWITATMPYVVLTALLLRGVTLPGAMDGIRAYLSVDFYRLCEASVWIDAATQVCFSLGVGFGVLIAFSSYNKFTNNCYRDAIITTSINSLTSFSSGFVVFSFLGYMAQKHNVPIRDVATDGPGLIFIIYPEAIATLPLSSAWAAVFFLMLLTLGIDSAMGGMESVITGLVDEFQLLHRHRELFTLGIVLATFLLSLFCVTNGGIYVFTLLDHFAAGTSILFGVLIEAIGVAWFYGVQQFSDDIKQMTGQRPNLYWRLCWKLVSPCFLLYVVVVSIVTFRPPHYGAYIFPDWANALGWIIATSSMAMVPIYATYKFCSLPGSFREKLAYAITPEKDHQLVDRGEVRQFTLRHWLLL

Compound	Ki [1] [nM]	Ki [2] [nM]	Ki [3] [nM]
CC(C)OC(=O)[C@@H]1C2CC[C@H](C[C@@H]1c1ccc(I)cc1)N2C	0.4	66.8	285
CC(C)OC(=O)[C@@H]1C2CC[C@H](C[C@@H]1c1ccc(Cl)cc1)N2C	1.4	1400	778
COC(=O)[C@H]1[C@@H](c2ccc(Cl)c(C)c2)C[C@@H]2CC[C@H]1N2C	0.8	10.5	36.2
COC(=O)[C@@H]1C2CCC(C[C@@H]1c1ccc(Cl)c(Cl)c1)N2C (stereo partly drawn) [(2S,3S)-methyl 3-(3,4-dichlorophenyl)-8-methyl-8-aza-bicyclo[3.2.1]octane-2-carboxylate]	0.79	3.1	17.9
COC(=O)C1C2CC[C@H](C[C@@H]1c1ccc(N)cc1)N2C (stereo partly drawn) [(3S,8R)-3-(4-Amino-phenyl)-8-methyl-8-aza-bicyclo[3.2.1]octane-2-carboxylic acid methyl ester]	9.8	5110	151
CN1[C@H]2CC[C@@H]1[C@@H](C(=O)O)[C@@H](c1ccc(Cl)cc1)C2 [RIT-70]	2070	> 10000	> 10000
COC(=O)[C@H]1[C@@H](c2ccc(Cl)cc2)C[C@@H]2CC[C@H]1N2C [RTI-31]	1.12	44.5	–
COC(=O)C1C2CC[C@H](C[C@@H]1c1ccc(C)cc1)N2C (stereo partly specified) [RTI-32]	1.7	–	60
COC(=O)[C@H]1[C@@H](c2ccc(Br)cc2)C[C@@H]2CC[C@H]1N2C [RTI-51]	1.69	10.6	–
COC(=O)[C@H]1[C@@H](c2ccc(Cl)cc2)C[C@@H]2CC[C@H]1N2 [RTI-110]	0.62	4.1	5.45
CN1[C@H]2CC[C@@H]1[C@@H](C(=O)Oc1ccccc1)[C@@H](c1ccc(Cl)cc1)C2 [RTI-113]	1.98	2340	2930
Cc1ccc([C@H]2C[C@@H]3CC[C@H]([C@H]2C(=O)Oc2ccccc2)N3C)cc1 [RTI-120]	3.26	> 10000	5830
CN1C2CC[C@@H]1C[C@H](c1ccc(Cl)cc1)C2C(=O)N1CCCC1 (stereo partly specified) [RTI-147]	1.38	> 10000	3950
CN1[C@H]2CC[C@@H]1[C@@H](C(=O)N1CCCC1)[C@@H](c1ccc(I)cc1)C2 [RTI-229]	0.37	1730	990
COC(=O)[C@H]1[C@@H](c2ccccc2)C[C@@H]2CC[C@H]1N2C [methyl (1R,2S,3S,5S)-8-methyl-3-phenyl-8-azabicyclo[3.2.1]octane-2-carboxylate]	23	–	920
